Measured values from paper PMC9230201, “Sustained Consumption of a Decaffeinated Green Coffee Nutraceutical Has Limited Effects on Phenolic Metabolism and Bioavailability in Overweight/Obese Subjects” (Nutrients, 2022).

Experiments:
[1] = Urinary excretion of phenolic metabolites after intake of the GCPE nutraceutical; conditions: for Cumulative urinary excretion, Total 0–24 h / Urinary excretion: urine; for Cumulative urinary excretion, Total 0–24 h: mean ± SEM, n = 9
Method: (§1) Participants attended the Human Nutrition Unit (HNU) at the Institute of Food Science, Technology and Nutrition (ICTAN-CSIC) on two consecutive days at the beginning of the intervention (week 0) and also on two consecutive days at the end of the study, after consuming daily two doses of the GCPE nutraceutical, providing 600 mg/d phenols, during two months (week 8). […] A licensed health care professional placed an intravenous catheter in the subjects′ nondominant arm and collected a fasting blood sample (baseline, 0 h). Then, subjects drank the soluble GCPE nutraceutical dissolved in 200 mL of water. […] On the sampling days, volunteers remained at the HNU, where a (poly)phenol-free diet was provided. Half an hour after consuming the nutraceutical, volunteers ate a breakfast consisting of ham, cheese, white bread, and a yogurt. Lunch (paella, bread, and yogurt) and an afternoon snack (muffin and yogurt) were eaten 5 and 9 h, respectively, after consuming the nutraceutical. Water and isotonic beverages were freely available. […] The same protocol was followed during visits at the end of the 8-week intervention. On each occasion, two days before each visit to the HNU, subjects consumed a low (poly)phenol diet free of foods containing hydroxycinnamates such as coffee, herbal teas, red wine, artichokes, whole grain cereals, vegetables, fruits and fruit juices, and dried fruits. Only banana, watermelon, cantaloupes, and potatoes were allowed.
(§2) Blood samples were immediately centrifuged (10 min, 3000 rpm, 4 °C) to obtain plasma. […] All biological samples were stored at −80 °C until analysis.
(§3) To extract plasma metabolites, 10 µL of 50% (v/v) aqueous formic acid, and 900 µL cold acetonitrile containing 50 µL of 10% (w/v) ascorbic acid were added to 400 µL defrosted plasma. Samples were vortexed and centrifuged (14,000 rpm, 10 min, 4 °C), repeating the extraction and combining the two supernatants, which were reduced to dryness under nitrogen [13]. Dried samples were resuspended in 150 µL of 0.1% aqueous formic acid (containing 10% acetonitrile acidified with 0.1% formic acid), centrifuged (15 min, 14,000 rpm, 4 °C), and the supernatant collected. Urine samples were diluted 1:1 with Milli-Q water and centrifuged (14,000 rpm, 20 min, 4 °C) prior to analysis. Phosphate-buffered saline (3 mL) was added to a representative 300 mg sample of thawed feces, homogenized in an ultrasound bath during 10 min, centrifuged (14,000 rpm, 20 min, 4 °C), and the supernatants collected.
(§4) Mobile phase A was 0.1% formic acid in Milli-Q water, and mobile phase B was acetonitrile containing 0.1% formic acid at a 0.3 mL/min flow rate. […] Metabolites were identified based on their retention time using authentic standards when possible. […] Urine concentration of excreted metabolites was normalized to the total volume excreted in each studied interval.
(§5) Plasma (30 µL), urine (5 µL) and fecal extracts (5 µL) were filtered through 0.45 µm
(§6) cellulose-acetate membrane filters and injected into an Agilent 1200 series LC system
(§7) ESI-Jet Stream Technology (Agilent Technologies). A reverse-phase Ascentis Express
(§8) C18 (15 cm x 3 mm, 2.7 µm) column (Sigma-Aldrich Quimica, Madrid), preceded by a
(§9) phase A was 0.1% formic acid in Milli-Q water, and mobile phase B was acetonitrile
(§10) containing 0.1% formic acid at a 0.3 mL/min flow rate. The gradient started with 10% B
(§11) at 0 min, 30% B at 10 min, 40% B at 15 min, reaching 50% B at 20 min. The starting
(§12) gradient was then re-established in 2 min and maintained for 8 min to re-equilibrate the

[2] = Plasma pharmacokinetics of phenolic metabolites after intake of the GCPE nutraceutical (LC-MS-QToF); conditions: for Cmax: mean ± SEM, n = 9; for AUC(0-t): AUC0–24h; for Tmax: Tmax (h) or Range
[3] = Fecal excretion of phenolic metabolites after intake of the GCPE nutraceutical; conditions: feces
Method: as §1, §2, §3, §4, §5, §6, §7, §8, §9, §10, §11, §12

[4] = week 0, GCPE nutraceutical with 300 mg hydroxycinnamic acids
[5] = week 0, first peak where biphasic
[6] = week 8, GCPE nutraceutical with 300 mg hydroxycinnamic acids
[7] = week 8, first peak where biphasic

With O=C(O)CNC(=O)c1cccc(O)c1 [3′-Hydroxyhippuric acid] the “Cumulative urinary excretion, Total 0–24 h” value (shortened to “Cumulative urinary excretion”) ([1]; week 0) was 32 ± 5 µmol, the “Cumulative urinary excretion” value ([1]; week 0, listed as 3′-hydroxyhippuric acid) was 32 µmol and the “Cumulative urinary excretion” value ([1]; week 8) was 46 ± 8 µmol. For the same compound, the “Cumulative urinary excretion” value ([1]; week 8, listed as 3′-hydroxyhippuric acid) was 46 µmol, the Amount excreted in urine, TOTAL ([1]; week 0, Table S5 total) was 32 ± 5 µmol and the Amount excreted in urine, 0- 3 h ([1]; week 0, interval 0–3 h) was 3 ± 2 µmol. For the same compound, the Amount excreted in urine, 3-6 h ([1]; week 0, interval 3–6 h) was 1.1 ± 0.2 µmol, the Amount excreted in urine, 6-9 h ([1]; week 0, interval 6–9 h) was 4 ± 1 µmol and the Amount excreted in urine, 9-11 h ([1]; week 0, interval 9–11 h) was 5 ± 1 µmol. For the same compound, the Amount excreted in urine, 11-24 h ([1]; week 0, interval 11–24 h) was 11 ± 2 µmol, the Amount excreted in urine, 0 h ([1]; week 8, 0 h (before intake on sampling day)) was 18 ± 5 µmol and the Amount excreted in urine, TOTAL ([1]; week 8, Table S6 total) was 46 ± 8 µmol. For the same compound, the Amount excreted in urine, 0- 3 h ([1]; week 8, interval 0–3 h) was 4 ± 1 µmol, the Amount excreted in urine, 3-6 h ([1]; week 8, interval 3–6 h) was 2.6 ± 0.7 µmol and the Amount excreted in urine, 6-9 h ([1]; week 8, interval 6–9 h) was 6 ± 2 µmol. The Amount excreted in urine, 9-11 h ([1]; week 8, interval 9–11 h) was 5 ± 1 µmol, the Amount excreted in urine, 11-24 h ([1]; week 8, interval 11–24 h) was 9 ± 2 µmol and the “AUC0–24h” value ([2]; week 0) was 10 ± 3 µM/min. For the same compound, the Cmax [2, 4] was 1100 ± 300 nM, the “Tmax (h) or Range” value [2, 5] was 10.0 ± 0.4 h and the “AUC0–24h” value ([2]; week 8) was 13 ± 3 µM/min. For the same compound, the Cmax [2, 6] was 1300 ± 200 nM and the “Tmax (h) or Range” value [2, 7] was 9.2 ± 0.5 h.
In the case of COc1ccc(CCC(=O)O)cc1OS(=O)(=O)O [DHiFA-3′-sulfate, 3-(4′-Methoxyphenyl)propanoic acid-3′-sulfate], the “Cumulative urinary excretion” value ([1]; week 0) is reported as 3 ± 1 µmol, the “Cumulative urinary excretion” value ([1]; week 8) is reported as 2.6 ± 0.8 µmol and the Amount excreted in urine, 0- 3 h ([1]; week 0, interval 0–3 h) is reported as 0.18 ± 0.06 µmol. For the same compound, the Amount excreted in urine, 3-6 h ([1]; week 0, interval 3–6 h) was 0.1 ± 0.04 µmol, the Amount excreted in urine, 6-9 h ([1]; week 0, interval 6–9 h) was 0.4 ± 0.1 µmol and the Amount excreted in urine, 9-11 h ([1]; week 0, interval 9–11 h) was 0.2 ± 0.1 µmol. The Amount excreted in urine, 11-24 h ([1]; week 0, interval 11–24 h) was 1.9 ± 0.8 µmol, the Amount excreted in urine, 0- 3 h ([1]; week 8, interval 0–3 h) was 0.14 ± 0.04 µmol and the Amount excreted in urine, 3-6 h ([1]; week 8, interval 3–6 h) was 0.09 ± 0.03 µmol. The Amount excreted in urine, 6-9 h ([1]; week 8, interval 6–9 h) was 0.24 ± 0.09 µmol, the Amount excreted in urine, 9-11 h ([1]; week 8, interval 9–11 h) was 0.11 ± 0.03 µmol and the Amount excreted in urine, 11-24 h ([1]; week 8, interval 11–24 h) was 2 ± 0.7 µmol. The “AUC0–24h” value ([2]; week 0) was 0.3 ± 0.1 µM/min, the Cmax [2, 4] was 40 ± 10 nM and the “Tmax (h) or Range” value [2, 5] was 7 ± 1 h. For the same compound, the “AUC0–24h” value ([2]; week 8) was 0.8 ± 0.5 µM/min, the Cmax [2, 6] was 110 ± 60 nM and the “Tmax (h) or Range” value [2, 7] was 11.6 ± 3.2 h.
In the case of COc1cc(C=CC(=O)O)ccc1OC1OC(C(=O)O)C(O)C(O)C1O (stereo not shown) [FA-4′-glucuronide, 3′-Methoxycinnamic acid-4′-glucuronide], the “Cumulative urinary excretion” value ([1]; week 0) is reported as 3.4 ± 0.4 µmol, the “Cumulative urinary excretion” value ([1]; week 8) is reported as 3.7 ± 0.5 µmol and the Amount excreted in urine, 0- 3 h ([1]; week 0, interval 0–3 h) is reported as 0.5 ± 0.1 µmol. For the same compound, the Amount excreted in urine, 3-6 h ([1]; week 0, interval 3–6 h) was 0.42 ± 0.07 µmol, the Amount excreted in urine, 6-9 h ([1]; week 0, interval 6–9 h) was 0.7 ± 0.2 µmol and the Amount excreted in urine, 9-11 h ([1]; week 0, interval 9–11 h) was 0.44 ± 0.09 µmol. For the same compound, the Amount excreted in urine, 11-24 h ([1]; week 0, interval 11–24 h) was 1.3 ± 0.3 µmol, the Amount excreted in urine, 0- 3 h ([1]; week 8, interval 0–3 h) was 0.6 ± 0.1 µmol and the Amount excreted in urine, 3-6 h ([1]; week 8, interval 3–6 h) was 0.37 ± 0.05 µmol. For the same compound, the Amount excreted in urine, 6-9 h ([1]; week 8, interval 6–9 h) was 0.8 ± 0.1 µmol, the Amount excreted in urine, 9-11 h ([1]; week 8, interval 9–11 h) was 0.8 ± 0.3 µmol and the Amount excreted in urine, 11-24 h ([1]; week 8, interval 11–24 h) was 1.3 ± 0.2 µmol. For the same compound, the “AUC0–24h” value ([2]; week 0) was 0.06 ± 0.01 µM/min, the Cmax [2, 4] was 16 ± 9 nM and the “Tmax, second peak” value ([2]; week 0, biphasic profile) was 4.7 ± 0.3 h. For the same compound, the “Tmax (h) or Range” value [2, 5] was 1.2 ± 0.3 h, the “AUC0–24h” value ([2]; week 8) was 0.063 ± 0.02 µM/min and the Cmax [2, 6] was 9 ± 2 nM. For the same compound, the “Tmax (h) or Range” value [2, 7] was 1.2 ± 0.3 h.
In the case of O=C(O)c1ccc(O)c(O)c1 [3,4-Dihydroxybenzoic acid], the “Amount of fecal metabolite excreted at 0 h” value (“Amount … at 0 h” for short) ([3]; week 0, mean ± SEM, n = 9) is reported as 0.016 ± 0.006 µmol/g, the “Amount … at 0 h” value ([3]; week 0, mean ± SEM, n = 9, listed as 3,4-dihydroxybenzoic acid) is reported as 0.016 µmol/g and the “Amount … at 0 h” value ([3]; week 8) is reported as 0.026 ± 0.008 µmol/g. For the same compound, the “Amount … at 0 h” value ([3]; week 8, listed as 3,4-dihydroxybenzoic acid) was 0.026 µmol/g, the “Amount of fecal metabolite excreted at 24 h” value ([3]; week 0) was 0.018 ± 0.005 µmol/g and the “Amount of fecal metabolite excreted at 24 h” value ([3]; week 8) was 0.04 ± 0.01 µmol/g. The “Cumulative urinary excretion” value ([1]; week 0) was 0.13 ± 0.02 µmol, the “Cumulative urinary excretion” value ([1]; week 8) was 0.18 ± 0.04 µmol and the Amount excreted in urine, 0- 3 h ([1]; week 0, interval 0–3 h) was 0.016 ± 0.005 µmol. The Amount excreted in urine, 3-6 h ([1]; week 0, interval 3–6 h) was 0.007 ± 0.003 µmol, the Amount excreted in urine, 6-9 h ([1]; week 0, interval 6–9 h) was 0.017 ± 0.005 µmol and the Amount excreted in urine, 9-11 h ([1]; week 0, interval 9–11 h) was 0.018 ± 0.006 µmol. For the same compound, the Amount excreted in urine, 11-24 h ([1]; week 0, interval 11–24 h) was 0.035 ± 0.009 µmol, the Amount excreted in urine, 0- 3 h ([1]; week 8, interval 0–3 h) was 0.03 ± 0.01 µmol and the Amount excreted in urine, 3-6 h ([1]; week 8, interval 3–6 h) was 0.014 ± 0.003 µmol. It also gave an Amount excreted in urine, 6-9 h ([1]; week 8, interval 6–9 h) of 0.027 ± 0.007 µmol, an Amount excreted in urine, 9-11 h ([1]; week 8, interval 9–11 h) of 0.018 ± 0.007 µmol and an Amount excreted in urine, 11-24 h ([1]; week 8, interval 11–24 h) of 0.03 ± 0.009 µmol.
For O=C(O)CCc1ccc(OS(=O)(=O)O)c(O)c1 [DHCA-4′-sulfate, 3-(3′-Hydroxyphenyl)propanoic acid-4′-sulfate], the Urinary excretion ([1]; week 0) was 8 µmol/24 h, the “Cumulative urinary excretion” value ([1]; week 0) was 8 ± 2 µmol and the Urinary excretion ([1]; week 8) was 10 µmol/24 h. For the same compound, the “Cumulative urinary excretion” value ([1]; week 8) was 10 ± 2 µmol, the Amount excreted in urine, 0- 3 h ([1]; week 0, interval 0–3 h) was 0.4 ± 0.1 µmol and the Amount excreted in urine, 3-6 h ([1]; week 0, interval 3–6 h) was 0.2 ± 0.04 µmol. For the same compound, the Amount excreted in urine, 6-9 h ([1]; week 0, interval 6–9 h) was 0.5 ± 0.2 µmol, the Amount excreted in urine, 9-11 h ([1]; week 0, interval 9–11 h) was 0.5 ± 0.2 µmol and the Amount excreted in urine, 11-24 h ([1]; week 0, interval 11–24 h) was 2.6 ± 0.8 µmol. For the same compound, the Amount excreted in urine, 0- 3 h ([1]; week 8, interval 0–3 h) was 0.6 ± 0.2 µmol, the Amount excreted in urine, 3-6 h ([1]; week 8, interval 3–6 h) was 0.2 ± 0.04 µmol and the Amount excreted in urine, 6-9 h ([1]; week 8, interval 6–9 h) was 0.5 ± 0.1 µmol. For the same compound, the Amount excreted in urine, 9-11 h ([1]; week 8, interval 9–11 h) was 0.6 ± 0.2 µmol, the Amount excreted in urine, 11-24 h ([1]; week 8, interval 11–24 h) was 1.7 ± 0.5 µmol and the “AUC0–24h” value ([2]; week 0) was 2.3 ± 0.5 µM/min. For the same compound, the Cmax [2, 4] was 340 ± 90 nM, the “Tmax (h) or Range” value [2, 5] was 7.9 ± 0.5 h and the “AUC0–24h” value ([2]; week 8) was 2.1 ± 0.4 µM/min. The Cmax [2, 6] was 330 ± 70 nM and the “Tmax (h) or Range” value [2, 7] was 8.4 ± 0.6 h.
With COc1ccc(/C=C/C(=O)O)cc1O [iFA, 3′-Hydroxy-4′-methoxycinnamic acid] the “Cumulative urinary excretion” value ([1]; week 0) was 1.7 ± 0.2 µmol, the “Cumulative urinary excretion” value ([1]; week 8) was 2.1 ± 0.2 µmol and the Amount excreted in urine, 0- 3 h ([1]; week 0, interval 0–3 h) was 1 ± 0.2 µmol. For the same compound, the Amount excreted in urine, 3-6 h ([1]; week 0, interval 3–6 h) was 0.35 ± 0.07 µmol, the Amount excreted in urine, 6-9 h ([1]; week 0, interval 6–9 h) was 0.27 ± 0.07 µmol and the Amount excreted in urine, 9-11 h ([1]; week 0, interval 9–11 h) was 0.04 ± 0.03 µmol. For the same compound, the Amount excreted in urine, 11-24 h ([1]; week 0, interval 11–24 h) was 0.04 ± 0.02 µmol, the Amount excreted in urine, 0- 3 h ([1]; week 8, interval 0–3 h) was 1.2 ± 0.2 µmol and the Amount excreted in urine, 3-6 h ([1]; week 8, interval 3–6 h) was 0.32 ± 0.04 µmol. For the same compound, the Amount excreted in urine, 6-9 h ([1]; week 8, interval 6–9 h) was 0.39 ± 0.07 µmol, the Amount excreted in urine, 9-11 h ([1]; week 8, interval 9–11 h) was 0.13 ± 0.07 µmol and the Amount excreted in urine, 11-24 h ([1]; week 8, interval 11–24 h) was 0.09 ± 0.04 µmol. It also gave an AUC(0-t) ([2]; human, oral, 300 mg hydroxycinnamic acids, week 0) of 0.025 ± 0.007 µM·h, an AUC(0-t) ([2]; human, oral, 300 mg hydroxycinnamic acids, week 8) of 0.043 ± 0.008 µM·h and a Tmax ([2]; human, oral, 300 mg hydroxycinnamic acids, week 0, first peak where biphasic) of 0.5 ± 0.1 h. It also gave a Tmax ([2]; human, oral, 300 mg hydroxycinnamic acids, week 8, first peak where biphasic) of 0.5 h, an AUC(0-t) ([2]; human, oral, 300 mg phenols, week 0) of 0.025 µM·h and an AUC(0-t) ([2]; human, oral, 300 mg phenols, week 8) of 0.043 µM·h. It also gave a Cmax ([2]; human, oral, 300 mg, Cmax, week 0, GCPE nutraceutical with 300 mg hydroxycinnamic acids) of 23 ± 6 nM and a Cmax ([2]; human, oral, 300 mg, Cmax, week 8, GCPE nutraceutical with 300 mg hydroxycinnamic acids) of 32 ± 7 nM.
